The numbers were not newly measured in patent US9809589B2, “Crystal form of compound used as mineralocorticoid receptor antagonist and preparation method therefor” (KBP BIOSCIENCES CO., LTD., priority 2012, dated 2017), which cites them from elsewhere.

In one data set the target is T1, androgen receptor (Homo sapiens, UniProt P10275).
T1 sequence (P10275 1-920): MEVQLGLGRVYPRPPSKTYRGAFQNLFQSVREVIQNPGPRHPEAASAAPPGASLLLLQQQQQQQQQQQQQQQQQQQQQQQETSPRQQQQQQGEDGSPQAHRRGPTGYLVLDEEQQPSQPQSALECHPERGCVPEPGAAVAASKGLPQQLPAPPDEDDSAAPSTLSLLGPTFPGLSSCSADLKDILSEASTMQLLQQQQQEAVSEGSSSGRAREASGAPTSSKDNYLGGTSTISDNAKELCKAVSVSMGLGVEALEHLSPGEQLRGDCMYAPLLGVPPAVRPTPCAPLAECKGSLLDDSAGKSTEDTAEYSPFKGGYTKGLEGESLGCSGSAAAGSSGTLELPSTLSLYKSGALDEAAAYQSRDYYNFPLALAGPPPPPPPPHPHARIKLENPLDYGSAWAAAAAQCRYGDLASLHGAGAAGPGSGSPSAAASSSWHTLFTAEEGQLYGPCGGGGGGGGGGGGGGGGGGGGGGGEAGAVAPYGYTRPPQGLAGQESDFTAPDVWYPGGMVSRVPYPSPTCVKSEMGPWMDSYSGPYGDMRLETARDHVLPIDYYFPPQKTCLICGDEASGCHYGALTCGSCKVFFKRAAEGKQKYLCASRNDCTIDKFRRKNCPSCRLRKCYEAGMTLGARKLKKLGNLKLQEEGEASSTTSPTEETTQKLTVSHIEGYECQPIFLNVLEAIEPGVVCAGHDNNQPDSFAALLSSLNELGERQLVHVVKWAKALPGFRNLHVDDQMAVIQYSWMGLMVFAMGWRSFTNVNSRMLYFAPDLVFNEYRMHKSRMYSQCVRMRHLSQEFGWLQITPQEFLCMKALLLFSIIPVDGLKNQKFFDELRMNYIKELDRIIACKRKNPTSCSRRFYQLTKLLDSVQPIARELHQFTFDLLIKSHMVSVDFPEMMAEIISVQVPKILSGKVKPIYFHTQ
The settings on record: relative to mineralocorticoid receptor; WO2012022121; cited from earlier work.

Data set [1] concerns the target T2, mineralocorticoid receptor (Homo sapiens, UniProt P08235).
T2 sequence (P08235 1-984): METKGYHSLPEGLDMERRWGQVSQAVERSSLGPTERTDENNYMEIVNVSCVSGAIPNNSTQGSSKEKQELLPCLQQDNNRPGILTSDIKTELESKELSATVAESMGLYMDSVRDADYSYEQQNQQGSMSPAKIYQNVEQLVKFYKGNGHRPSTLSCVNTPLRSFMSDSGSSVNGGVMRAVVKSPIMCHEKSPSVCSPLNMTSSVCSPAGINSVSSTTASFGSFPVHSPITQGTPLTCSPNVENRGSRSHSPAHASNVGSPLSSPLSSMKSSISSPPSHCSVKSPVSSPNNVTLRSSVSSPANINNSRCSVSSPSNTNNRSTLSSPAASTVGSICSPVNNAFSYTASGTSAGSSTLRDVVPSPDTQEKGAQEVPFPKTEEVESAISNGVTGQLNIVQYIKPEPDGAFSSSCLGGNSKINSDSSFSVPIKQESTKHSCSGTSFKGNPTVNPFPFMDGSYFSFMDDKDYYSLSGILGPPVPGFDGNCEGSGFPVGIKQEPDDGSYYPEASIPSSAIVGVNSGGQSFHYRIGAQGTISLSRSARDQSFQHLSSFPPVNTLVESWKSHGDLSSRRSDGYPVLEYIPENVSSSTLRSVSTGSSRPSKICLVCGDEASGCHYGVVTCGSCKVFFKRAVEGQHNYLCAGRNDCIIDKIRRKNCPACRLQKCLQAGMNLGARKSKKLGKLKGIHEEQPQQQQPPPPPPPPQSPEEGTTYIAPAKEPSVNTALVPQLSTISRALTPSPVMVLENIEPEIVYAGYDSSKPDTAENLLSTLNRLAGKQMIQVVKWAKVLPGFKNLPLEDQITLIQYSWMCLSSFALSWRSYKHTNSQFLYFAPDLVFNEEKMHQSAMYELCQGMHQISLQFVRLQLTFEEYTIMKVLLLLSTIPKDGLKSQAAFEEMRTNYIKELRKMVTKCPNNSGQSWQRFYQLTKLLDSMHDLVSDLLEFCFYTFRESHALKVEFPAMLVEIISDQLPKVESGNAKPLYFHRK
The settings on record: as disclosed in WO2012022121; cited from earlier work.

In a further data set the target is T3, glucocorticoid receptor (Homo sapiens, UniProt P04150).
T3 sequence (P04150 1-777): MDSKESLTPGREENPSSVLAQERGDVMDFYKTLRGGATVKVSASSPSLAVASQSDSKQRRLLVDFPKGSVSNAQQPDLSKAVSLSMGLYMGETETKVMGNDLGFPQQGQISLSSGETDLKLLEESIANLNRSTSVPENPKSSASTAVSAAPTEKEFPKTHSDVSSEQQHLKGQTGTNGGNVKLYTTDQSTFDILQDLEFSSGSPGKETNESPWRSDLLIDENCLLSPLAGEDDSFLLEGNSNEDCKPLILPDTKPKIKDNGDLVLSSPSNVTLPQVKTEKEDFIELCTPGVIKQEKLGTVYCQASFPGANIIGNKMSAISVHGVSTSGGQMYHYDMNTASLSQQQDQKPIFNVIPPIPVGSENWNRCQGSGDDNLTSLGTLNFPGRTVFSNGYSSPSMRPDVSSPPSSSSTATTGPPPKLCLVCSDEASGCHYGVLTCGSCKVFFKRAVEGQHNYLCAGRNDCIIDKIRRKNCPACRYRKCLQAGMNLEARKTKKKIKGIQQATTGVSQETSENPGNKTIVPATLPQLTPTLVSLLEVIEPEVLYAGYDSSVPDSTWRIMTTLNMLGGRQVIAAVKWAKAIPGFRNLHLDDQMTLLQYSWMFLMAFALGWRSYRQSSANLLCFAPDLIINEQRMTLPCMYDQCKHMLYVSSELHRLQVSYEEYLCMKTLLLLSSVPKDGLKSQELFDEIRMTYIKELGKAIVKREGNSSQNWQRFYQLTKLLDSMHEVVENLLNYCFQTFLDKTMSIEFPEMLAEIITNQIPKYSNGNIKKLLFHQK
The settings on record: relative to mineralocorticoid receptor; WO2012022121; cited from earlier work.

For `N#Cc1ccc(N2N=C3c4ccc(C(=O)N5CCC(O)CC5)nc4CC[C@@H]3[C@@H]2C2CCCC2)cc1Cl` [compound represented by Formula (1), 2-chloro-4-[(3S,3aR)-3-cyclopentyl-7-(4-hydroxypiperidin-1-carbonyl)-3,3a,4,5-tetrahydro-2H-pyrazolo[3,4-f]quinolin-2-yl]benzonitrile], at androgen receptor, the “Affinity to the androgen receptor” value is “lower affinity”. For the same compound, in data set [1], the “Binding to the mineralocorticoid receptor” value is reported as “selectively bind to the mineralocorticoid receptor”. In addition, the “Affinity to the glucocorticoid receptor” value on glucocorticoid receptor is recorded as “lower affinity”.
